Laboratory results taken from US9181241B2, “Antagonists of chemokine receptors” (ChemoCentryx, Inc., priority 2012, dated 2015).

Biological target: T1, CCR1 (Homo sapiens, UniProt P32246)
T1 construct: host or cells: THP-1 cells or isolated human CD14+ monocytes
T1 sequence (P32246 1-355): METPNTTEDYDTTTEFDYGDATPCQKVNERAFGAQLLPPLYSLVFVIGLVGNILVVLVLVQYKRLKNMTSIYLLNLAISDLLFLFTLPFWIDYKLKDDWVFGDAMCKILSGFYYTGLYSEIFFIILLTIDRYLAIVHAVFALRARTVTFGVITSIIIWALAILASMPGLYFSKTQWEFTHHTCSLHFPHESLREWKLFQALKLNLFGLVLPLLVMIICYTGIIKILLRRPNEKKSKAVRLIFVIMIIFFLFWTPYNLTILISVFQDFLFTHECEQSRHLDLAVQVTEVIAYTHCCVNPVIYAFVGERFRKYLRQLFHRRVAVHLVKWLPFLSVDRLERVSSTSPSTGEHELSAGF
Assay: Chemotaxis assay (CTX): inhibition of CCR1 mediated migration of THP-1 or monocyte cells
Type: cell-based
Conditions: class symbols; activity for either the chemotaxis assay or binding assay
Experimental: THP-1 cells were obtained from ATCC (TIB-202) and cultured as a suspension in RPMI-1640 medium supplemented with 2 mM L-glutamine, 1.5 g/L sodium bicarbonate, 4.5 g/L glucose, 10 mM HEPES, 1 mM sodium pyruvate, 0.05% 2-mercaptoethanol and 10% FBS. Cells were grown under 5% CO2/95% air, 100% humidity at 37° C. and subcultured twice weekly at 1:5 (cells were cultured at a density range of 2×10^5 to 2×10^6 cells/mL) and harvested at 1×10^6 cells/mL. THP-1 cells express CCR1 and can be used in CCR1 binding and functional assays.
Monocytes were isolated from human buffy coats using the Miltenyi bead isolation system (Miltenyi, Auburn, Calif.). Briefly, following a Ficoll gradient separation to isolate peripheral blood mononuclear cells, cells were washed with PBS and the red blood cells lysed using standard procedures. Remaining cells were labeled with anti-CD14 antibodies coupled to magnetic beads (Miltenyi Biotech, Auburn, Calif.). Labeled cells were passed through AutoMACS (Miltenyi, Auburn, Calif.) and positive fraction collected. Monocytes express CCR1 and can be used in CCR1 binding and functional assays.
Chemotaxis assays were performed using 5 μm pore polycarbonate, polyvinylpyrrolidone-coated filters in 96-well chemotaxis chambers (Neuroprobe; Gaithersburg, Md.) using chemotaxis buffer (Hank's balanced salt solution (HBSS) and 1% FBS). CCR1 chemokine ligands (i.e., MIP-1α, CCL15/Leukotactin; R&D Systems; Minneapolis, Minn.) are use to evaluate compound mediated inhibition of CCR1 mediated migration. Other chemokines (i.e., SDF-1α; R&D Systems; Minneapolis, Minn.) are used as specificity controls. The lower chamber was loaded with 29 μl of chemokine (i.e., 0.1 nM CCL15/Leukotactin) and varying amounts of compound; the top chamber contained 100,000 THP-1 or monocyte cells in 20 μl. The chambers were incubated 1-2 hours at 37° C., and the number of cells in the lower chamber quantified either by direct cell counts in five high powered fields per well or by the CyQuant assay (Molecular Probes), a fluorescent dye method that measures nucleic acid content, and by measuring with a Spectrafluor Plus (Tecan). The computer program Prism from GraphPad, Inc. (San Diego, Calif.) was used to calculate IC50 values. IC50 values are those compound concentrations required to inhibit the number of cells responding to a CCR1 agonist by 50%.

For O=C(Cc1ccc(C(F)(F)F)cc1)N1CCCc2c1cnn2-c1ccc(F)cc1, the IC50 was < 1000 nM.

With Cc1ccnn1CC(=O)N1CCCc2c1cnn2-c1ccc(F)cc1 the IC50 was < 1000 nM.

In the case of O=C(Cn1ncc2c1CCCC2)N1CCCc2c1cnn2-c1ccc(F)cc1, the IC50 is reported as < 1000 nM.

O=C(Cc1nc(C(F)(F)F)c2ccccn12)N1CCCc2c1cnn2-c1ccc(F)cc1 was tested, and the IC50 was < 1000 nM.

In the case of O=C(Cn1cc(Cl)cn1)N1CCCc2c1cnn2-c1ccc(F)cc1, the IC50 is reported as < 1000 nM.

For O=C(Cn1ncc2cccnc21)N1CCCc2c1cnn2-c1ccc(F)cc1, the IC50 was < 1000 nM.

Cc1nc(C(F)(F)F)nn1C(C)C(=O)N1CCCc2c1cnn2-c1ccc(Cl)cc1 (stereo not drawn) was tested, and the IC50 was < 1000 nM.

O=C(Cn1nc(C(F)(F)F)c2c1CCOC2)N1CCCc2c1cnn2-c1ccc(F)cc1 was tested, and the IC50 was < 1000 nM.

O=C(Cc1cccc(OC(F)(F)F)c1)N1CCCc2c1cnn2-c1ccc(F)cc1 was tested, and the IC50 was 1000 to 2500 nM.

CCC(C(=O)N1CCCc2c1cnn2-c1ccc(F)cc1)n1nc(C(F)(F)F)c(Cl)c1C (stereo not drawn) was tested, and the IC50 was < 1000 nM.

For Cc1nn(-c2ccc(F)cc2)c2c1N(C(=O)Cn1nc(C(F)(F)F)c(Cl)c1C)CCC2, the IC50 was < 1000 nM.

For O=C(Cn1cc(C(F)(F)F)cn1)N1CCCc2c1cnn2-c1ccc(F)cc1, the IC50 was < 1000 nM.

For Cc1cc(C(F)(F)F)nn1CC(=O)N1CCCc2c1cnn2-c1ccc(F)cc1, the IC50 was < 1000 nM.

O=C(Cn1nc(C(F)(F)F)c2c1CCC2)N1CCCc2c1cnn2-c1ccc(F)cc1 was tested, and the IC50 was < 1000 nM.

Cc1cc(C(F)(F)F)nn1C(CC(=O)O)C(=O)N1CCCc2c1cnn2-c1ccc(F)cc1 (stereo not drawn) was tested, and the IC50 was 2500 to 12500 nM.

O=C(Cn1nc(C(F)(F)F)c2c1OCCC2)N1CCCc2c1cnn2-c1ccc(F)cc1 was tested, and the IC50 was < 1000 nM.

With Cc1c(Cl)c(C(F)(F)F)nn1C(CO)C(=O)N1CCCc2c1cnn2-c1ccc(F)cc1 (stereo not drawn) [drawing 103] the IC50 was < 1000 nM.

In the case of Cc1c(Cl)c(C#N)nn1CC(=O)N1CCCc2c1cnn2-c1ccc(F)cc1, the IC50 is reported as < 1000 nM.

O=C(C(O)c1cccc(C(F)(F)F)c1)N1CCCc2c1cnn2-c1ccc(F)cc1 (stereo not drawn) was tested, and the IC50 was 1000 to 2500 nM.

In the case of O=C(Cc1ccc(Cl)cc1)N1CCCc2c1cnn2-c1ccc(F)cc1, the IC50 is reported as < 1000 nM.

In the case of CC(C)(C(=O)N1CCCc2c1cnn2-c1ccc(F)cc1)c1ccc(Cl)c(C(F)(F)F)c1, the IC50 is reported as < 1000 nM.

For O=C(Cc1nc2ccccc2[nH]1)N1CCCc2c1cnn2-c1ccc(F)cc1, the IC50 was < 1000 nM.

With CCC(C(=O)N1c2cnn(-c3ccc(F)cc3)c2CCC1C)n1nc(C(F)(F)F)cc1C (stereo not drawn) the IC50 was < 1000 nM.

CCC(C(=O)N1CCCc2c1cnn2-c1ccc(F)cc1)n1nc(C(C)(C)O)cc1C (stereo not drawn) was tested, and the IC50 was < 1000 nM.

For Nc1ncnc2c1c(-c1ncc[nH]1)nn2CC(=O)N1CCCc2c1cnn2-c1ccc(F)cc1, the IC50 was < 1000 nM.

For O=C(Cn1ccc(C(F)(F)F)n1)N1CCCc2c1cnn2-c1ccc(F)cc1, the IC50 was < 1000 nM.

In the case of Cc1c(Cl)c(C(F)(F)F)nn1C(C(=O)N1CCCc2c1cnn2-c1ccc(F)cc1)C(C)C (stereo not drawn), the IC50 is reported as < 1000 nM.

For Cc1c(Cl)c(C(F)(F)F)cn1CC(=O)N1c2cnn(-c3ccc(F)cc3)c2CCC1C (stereo not drawn), the IC50 was < 1000 nM.

O=C(Cc1ccc(Cl)c(C(F)(F)F)c1)N1CCCc2c1cnn2-c1ccc(F)cc1 was tested, and the IC50 was < 1000 nM.

In the case of O=C(Cc1ccc(Cl)c(OC(F)(F)F)c1)N1CCCc2c1cnn2-c1ccc(F)cc1, the IC50 is reported as < 1000 nM.

For COCC(C(=O)N1CCCc2c1cnn2-c1ccc(F)cc1)n1nc(C(F)(F)F)c(Cl)c1C (stereo not drawn), the IC50 was < 1000 nM.

In the case of Cc1nc(C(F)(F)F)cn1C(C)C(=O)N1CCCc2c1cnn2-c1ccc(F)cc1 (stereo not drawn), the IC50 is reported as < 1000 nM.

With Cc1c(Cl)cccc1CC(=O)N1CCCc2c1cnn2-c1ccc(F)cc1 the IC50 was > 12500 nM.

In the case of Cc1c(Cl)cnn1CC(=O)N1CCCc2c1cnn2-c1ccc(F)cc1, the IC50 is reported as < 1000 nM.

With Cc1c(Cl)c(-c2ncccn2)nn1CC(=O)N1CCCc2c1cnn2-c1ccc(F)cc1 the IC50 was < 1000 nM.

With Cc1cc(C(F)(F)F)nn1C(CC(N)=O)C(=O)N1CCCc2c1cnn2-c1ccc(F)cc1 (stereo not drawn) the IC50 was < 1000 nM.

In the case of Cc1c(Cl)c(C(F)(F)F)nn1C(C)C(=O)N1CCCc2c1cnn2-c1ccc(F)cc1 (stereo not drawn), the IC50 is reported as < 1000 nM.

In the case of O=C(Cn1nc(-c2ncc[nH]2)c2cccnc21)N1CCCc2c1cnn2-c1ccc(F)cc1, the IC50 is reported as < 1000 nM.

With CC(C(=O)N1CCCc2c1cnn2-c1ccc(F)cc1)c1ccc(Cl)c(C(F)(F)F)c1 (stereo not drawn) the IC50 was < 1000 nM.
